Assay results reported in patent US20250177579A1, “NOVEL COMPOUND, a-SYNUCLEIN AGGREGATE BINDER, AND USE THEREOF” (NATIONAL INSTITUTES FOR QUANTUM SCIENCE AND TECHNOLOGY, priority 2022, published 2025).

Key:
α-synuclein lesions = target: T1, α-synuclein lesions (Mus musculus, UniProt O55042); assay: In vivo two-photon laser scanning fluorescence microscopy of α-synuclein fibril-inoculated mouse; details: 50 μl of 0.1% DMSO solution, imaging 30 minutes after administration, FIG. 4; for binding to α-synuclein lesions in vivo: excitation 900 nm
T1 construct: from tissue; host or cells: brain of a C57/BL/6 mouse inoculated in the striatum with recombinant mouse α-synuclein fibrils (made in E. coli)
Experimental: First, mouse α-synuclein was expressed in and extracted from E. coli as a recombinant protein, and then incubated in vitro to form insoluble α-synuclein aggregates. The α-synuclein aggregates were then inoculated into the striatum of a mouse. […] Note that the inoculation of the α-synuclein aggregates into the striatum of the mouse was carried out in the following manner. First, hair on the head of a 9-week-old C57/BL/6 male mouse which had been anesthetized with 1.5% (v/v) isoflurane was removed, and the scalp was disinfected with isodine, followed by application of xylocaine and incision in the scalp to expose the skull. Then, a hole was drilled in the skull at a position of 0.05 mm posterior to the bregma and 2 mm lateral to the midline, and 3 μl of an α-synuclein fibril solution (mouse α-synuclein fibril (4 mg/ml) in saline) was injected into a position 2 mm ventral to the brain surface with use of a glass pipette. The scalp was then returned and sutured.
A model mouse was anesthetized with 1.5% (v/v) isoflurane 4 or more months after inoculation of an α-synuclein fibril solution. Then, a cranial window was placed on the model mouse in accordance with the Seylaz-Tomita method (Tomita et al. J Cereb Blood Flow Metab 25, 858-67, 2005). Two or more weeks after the placement of the cranial window, the mouse was fixed under a two-photon laser fluorescence microscope, 100 μl of physiological saline containing 5 mmol/1 Sulforhodamine 101 was intraperitoneally administered to the mouse, and then intravital two-photon fluorescence imaging was carried out at an excitation wavelength of 900 nm. Thereafter, 50 μl of DMSO solution containing C05-05, SPAL-T-83, SPAL-T-95, or SPAL-E-17 at a 0.1% concentration was intraperitoneally administered to the mouse. Thirty minutes after the administration, intravital two-photon fluorescence imaging was carried out at an excitation wavelength of 900 nm. Detection wavelengths for C05-05, SPAL-T-83, SPAL-T-95, and SPAL-E-17 were set at 500 nm to 550 nm, and a detection wavelength for Sulforhodamine 101 was set at 573 nm to 648 nm. In FIG. 4, each arrow indicates a blood vessel, and each arrowhead indicates fluorescence from the compound binding to an α-synuclein lesion.

α-synuclein aggregates [1] = target: T2, α-synuclein aggregates (Homo sapiens, UniProt P37840); assay: In vitro fluorescence microscope measurement, DLB patient brain sections; type: binding; parameters: from tissue; host or cells: amygdala sections of a DLB patient's postmortem brain; details: 30 μmol/l test compound, 50% ethanol, amygdala sections of DLB patient, FIGS. 1 and 2
Description: (§1) Postmortem human brains were obtained in autopsies carried out with respect to a patient with dementia with Lewy bodies (DLB) and a patient with Alzheimer's disease (AD). In a cryostat (HM560, Carl Zeiss), frozen tissue from the DLB patient was sliced into sections each having a thickness of 20 μm. Brain tissue from the AD patient was fixed in 10% neutral buffered formalin, embedded in a paraffin block, and sliced into sections each having a thickness of 6 μm.
(§2) Each brain section and a 30 μmol/l test compound were incubated in a 50% ethanol solution at room temperature for 30 minutes. Subsequently, the sections were rinsed with 50% ethanol for 5 minutes and dipped into double-distilled water twice for 3 minutes each. After the section was mounted in a mounting medium (VECTASHIELD H-1000, Vector Laboratories), an image of a lesion-enriched area on the section was obtained with use of a fluorescence microscope (DM4000, Leica). In FIG. 1, each arrowhead indicates fluorescence from the compound binding to α-synuclein aggregates in the brain of the DLB patient, each arrow indicates fluorescence from the compound binding to amyloid-β aggregates in the brain of the AD patient, and an asterisk indicates fluorescence from the compound binding to tau aggregates in the brain of the AD patient. The fluorescence intensities of lesion-enriched areas and lesion-free areas (background) were quantified with use of analysis software (Image J). Note that SPAL-T-83, SPAL-T-95, and SPAL-E-17 were each used as the test compound. Note also that ((E)-1-fluoro-3-(2-(4-(6-(methylamino)pyridin-3-yl)but-1-en-3-ynyl)benzo[d]thiazol-6-yloxy)propan-2-ol (C05-05) synthesized by the method disclosed in Synthetic Example 21 of Patent Literature 2 (International Publication No. WO 2020/174963) listed above was used as a control compound.

[2] = tested on: tau aggregates or amyloid-β aggregates; assay: In vitro fluorescence microscope measurement, AD patient brain sections compared with DLB sections; type: binding, human; details: for binding to α-synuclein aggregates compared with binding to tau aggregates or amyloid-β aggregates formed in the brain of the AD patient: 30 μmol/l test compound, DLB amygdala vs AD superior temporal gyrus sections; for ratio of binding to α-synuclein aggregates to binding to tau aggregates or amyloid-β aggregates, compared with the ratio of C05-05: 30 μmol/l, fluorescence intensity quantified, FIG. 2, comparator C05-05
Description: as §1, §2

[3] = target: T3, phosphorylated α-synuclein (Mus musculus, UniProt O55042); assay: In vitro fluorescence microscope measurement, brain sections of α-synuclein fibril-inoculated mouse; type: binding; details: 30 μmol/l test compound, 20% ethanol, co-stained with pS129 antibody, FIG. 3
T3 construct: from tissue; host or cells: brain of a C57/BL/6 mouse inoculated in the striatum with recombinant mouse α-synuclein fibrils (made in E. coli)
Experimental: When mouse α-synuclein is expressed in and extracted from E. coli as a recombinant protein and then incubated in vitro, insoluble α-synuclein aggregates are formed. By inoculating these α-synuclein aggregates into the striatum of a mouse, the α-synuclein aggregates propagate to surrounding areas via the neural circuitry, and an α-synuclein lesion is observed in the cerebral neocortex several months later (Masuda-Suzukake et al. Acta Neuropathol Commun 2, 88, 2014; Shimozawa et al. Acta Neuropathol Commun 5, 12, 2017). By extracting the brain of this mouse, preparing a section, and then analyzing the section by fluorescent staining, it is possible to examine whether the compound in accordance with an embodiment of the present invention binds to a lesion caused by phosphorylated α-synuclein.
First, mouse α-synuclein was expressed in and extracted from E. coli as a recombinant protein, and then incubated in vitro to form insoluble α-synuclein aggregates. The α-synuclein aggregates were then inoculated into the striatum of a mouse. […] Note that the inoculation of the α-synuclein aggregates into the striatum of the mouse was carried out in the following manner. […]
The brain of this α-synuclein fibril-inoculated mouse was extracted, and then sections were prepared. The sections were analyzed by fluorescent staining. […] After the section was mounted in a mounting medium (VECTASHIELD H-1000), an image of an α-synuclein aggregate-enriched area on the section was obtained with use of a fluorescence microscope (DM4000). […] After the section was subjected to immunohistochemical staining with use of an anti-phosphorylated α-synuclein monoclonal antibody (pS129, abcam, ab59264) (1:1000) and then mounted in a mounting medium (VECTASHIELD H-1000), an image of the same area as above was obtained with use of a fluorescence microscope (DM4000). […] In FIG. 3, each arrowhead indicates a lesion, caused by phosphorylated α-synuclein, in the brain of the α-synuclein fibril-inoculated mouse and fluorescence from the compound binding to the phosphorylated α-synuclein.

α-synuclein aggregates [4] = target: T2, α-synuclein aggregates; details: background art, cited from earlier work

| SMILES | delivery into the brain and neurons of the living body (α-synuclein lesions) | binding to α-synuclein lesions in vivo (α-synuclein lesions) | binding to α-synuclein aggregates formed in the brain of the DLB patient (fluorescence) (α-synuclein aggregates [1]) | binding to α-synuclein aggregates compared with binding to tau aggregates or amyloid-β aggregates formed in the brain of the AD patient [2] | ratio of binding to α-synuclein aggregates to binding to tau aggregates or amyloid-β aggregates, compared with the ratio of C05-05 [2] | binding to a lesion caused by phosphorylated α-synuclein [3] | binding selectivity with respect to the α-synuclein aggregates (α-synuclein aggregates [4]; binds to amyloid-β aggregates) | binding affinity with respect to the α-synuclein aggregates (α-synuclein aggregates [4]) |
| --- | --- | --- | --- | --- | --- | --- | --- | --- |
| CNc1ccc(C#C/C=C/c2nc3ccc(OCC(O)CF)cc3s2)cn1 (stereo not shown) [Compound C05-05, reference compound] | delivered into the brain and further into neurons of the living body | bound to α-synuclein lesions |  |  |  |  |  |  |
| CNc1cnc(C#C/C=C/c2nc3ccc(OCC(O)CF)nc3s2)cn1 (stereo not shown) [SPAL-E-17, (E)-1-fluoro-3-((2-(4-(5-(methylamino)pyrazin-2-yl)but-1-en-3-yn-1-yl)thiazolo[5,4-b]pyridin-5-yl)oxy)propan-2-ol] | delivered into the brain and further into neurons of the living body | bound to α-synuclein lesions | bound to α-synuclein aggregates | greater | higher | bound to a lesion caused by phosphorylated α-synuclein |  |  |
| CNc1cnc(C#C/C=C/c2nc3ccc(NCC(O)CF)cc3s2)cn1 (stereo not shown) [SPAL-T-83, (E)-1-fluoro-3-((2-(4-(5-(methylamino)pyrazin-2-yl)but-1-en-3-yn-1-yl)benzo[d]thiazol-6-yl)amino)propan-2-ol] | delivered into the brain and further into neurons of the living body | bound to α-synuclein lesions | bound to α-synuclein aggregates | greater | higher | bound to a lesion caused by phosphorylated α-synuclein |  |  |
| CNc1ccc(C#C/C=C/c2nc3ccc(NCC(O)CF)cc3s2)cn1 (stereo not shown) [SPAL-T-95, (E)-1-fluoro-3-((2-(4-(6-(methylamino)pyridin-3-yl)but-1-en-3-yn-1-yl)benzo[d]thiazol-6-yl)amino)propan-2-ol] | delivered into the brain and further into neurons of the living body | bound to α-synuclein lesions | bound to α-synuclein aggregates | greater | higher | bound to a lesion caused by phosphorylated α-synuclein |  |  |
| CN([11CH3])c1ncc(/C=C/c2nc3ccc(OCCF)cc3o2)s1 [[^11C]BF-227] |  |  |  |  |  |  | low binding selectivity | insufficient binding affinity |
